The values below come from US20240409536A1, “COMPOUNDS AND METHODS FOR MODULATING SPLICING” (REMIX THERAPEUTICS INC., priority 2021, published 2024).

Structures are written as SMILES. Where two headings read alike, the source gives them in different places.

In one test the test system is SMN2 mRNA. Kind of test: Gene panel canonical junction qPCR assay, SMN2 CJ mRNA decrease. The class given is cell-based, human. As to conditions: Homo sapiens. As to the method:
(§1) Compounds described herein were used to modulate RNA transcript abundance in cells. The expression of a target mRNA was measured by detecting the formation of an exon-exon junction in the canonical transcript (CJ). A compound mediated exon-inclusion event was detected by observing an increase in formation of a new junction with an alternative exon (AJ). Real-time qPCR assays were used to detect these splicing switches and interrogate the potency of various compounds towards different target genes. A high-throughput real time quantitative PCR (RT-qPCR) assay was developed to measure these two isoforms of the mRNA (CJ and AJ) for exemplary genes, such as HTT, SMN2, and MYB, together with a control housekeeping gene, GAPDH or GUSB or PPIA, used for normalization. Briefly, the A673 or K562 cell line was treated with various compounds described herein (e.g., compounds of Formula (I), (I), or (III)). After treatment, the levels of the HTT, MYB, or SMN2 mRNA targets were determined from each sample of cell lysate by cDNA synthesis followed by qPCR.
(§2) The data analysis was performed by first determining the ΔCt vs the housekeeper gene. This ΔCt was then normalized against the DMSO control (ΔΔCt) and converted to RQ (relative quantification) using the 2^(−ΔΔCt) equation. The RQ were then converted to a percentage response by arbitrarily setting an assay window of 3.5 and 4.0 ΔCt for HTT-CJ and MYB-CJ respectively and an assay window of 9 and 3 ΔCt for HTT-AJ and MYB-AJ in 96 well format (50,000 K562 cells/well and 15,000 A673 cells per well) and an assay window of 3 and 4 ΔCt for HTT-CJ and MYB-CJ respectively and an assay window of 5 and 3 ΔCt for HTT-AJ and MYB-AJ respectively in 384 well format (8,000 K562 cells/well example). […] The percentage response was then fitted to the 4 parametric logistic equation to evaluate the concentration dependence of compound treatment. The increase in AJ mRNA is reported as AC50 (compound concentration having […] in AJ increase) while the decrease in CJ mRNA levels is reported as IC50 (compound concentration having 50) response in CJ decrease).
(§3) Additional studies were carried out for a larger panel of genes using the protocol provided above. The junction between flanking upstream and downstream exons was used to design canonical junction qPCR assays. At least one of the forward primer, reverse primer or the CY5-labeled 5′ nuclease probe (with 3′ quencher such as ZEN/Iowa Black FQ) was designed to overlap with the exon junction to capture the CJ mRNA transcript. BLAST was used to confirm the specificity of the probeset and parameters such as melting temperature, GC content, amplicon size, and primer dimer formation are considered during their design. Data for the decrease in CJ mRNA levels for four exemplary genes (HTT, SMN2, MYB, and Target C) analyzed in this panel are reported as IC50 (compound concentration having […] in CJ decrease).
(§4) A summary of the results from the panel is illustrated in Tables 5A and 51B, wherein “A” represents an IC50 of less than 100 nM; “B” represents an IC50 of between 100 nM and 1 μM; and “C” represents an IC50 of between 1 μM and 10 μM; and “D” represents an IC50 of greater than 10 μM.

Test [1] deals with HTT mRNA. Kind of test: Splicing RT-qPCR assay, HTT canonical (CJ) and alternative (AJ) junction mRNA. As to conditions: Homo sapiens, A673 or K562 cells, 24 hours; for IC50: decrease in canonical junction mRNA; for AC50: increase in alternative junction mRNA. The class given is cell-based. As to the method:
as §1
(§5) • Cells-to-CT 1-step kit: ThermoFisher A25602, Cells-to-CT lysis reagent: ThermoFisher 4391851C, TaqMan™ Fast Virus 1-Step Master Mix: ThermoFisher 4444436 • GAPDH: VIC-PL, ThermoFisher 4326317E (Assay: Hs99999905_ml)—used for K562/suspension cell lines • GUSB: VIC-PL, ThermoFisher 4326320E (Assay: Hs99999908_ml)—used for K562/suspension cell lines • PPIA: VIC-PL, ThermoFisher 4326316E (Assay: Hs99999904_ml)—used for A673/adherent cell lines
(§6) The A673 cell line was cultured in DMEM with 10% FBS. Cells were diluted with full growth media and plated in a 96-well plate (15,000 cells in 100 ul media per well). The plate was incubated at 37° C. with 5% CO2 for 24 hours to allow cells to adhere. An 11-point 3-fold serial dilution of the compounds was made in DMSO then diluted in media in an intermediate plate. Compounds were transferred from the intermediate plate to the cell plate with the top dose at a final concentration of 10 uM in the well. Final DMSO concentration was kept at or below 0.25%. The cell plate was returned to the incubator at 37° C. with 5% CO2 for an additional 24 hours.
(§7) The K562 cell line was cultured in IMDM with 10% FBS. For K562, cells were diluted with full growth media and plated in either a 96-well plate (50,000 cells in 50 uL media per well) or a 384-well plate (8,000-40,000 cells in 45 uL media per well). An 11-point 3-fold serial dilution of the compounds were made in DMSO then diluted in media in an intermediate plate. Compound was transferred from the intermediate plate to the cell plate with the top dose at a final concentration of 10 uM in the well. Final DMSO concentration was kept at or below 0.25%. Final volume was 100 uL for 96-well plate and 50 uL for 384-well plate. The cell plate was then placed in an incubator at 37° C. with 5% CO2 for 24 hours.
(§8) The cells were then gently washed with 50 uL-100 uL cold PBS before proceeding to addition of lysis buffer. 30 uL-50 uL of room temperature lysis buffer with DNAse I (and optionally RNAsin) was added to each well. Cells were shaken/mixed thoroughly at room temperature for 5-10 minutes for lysis to take place and then 3 uL-5 uL of room temperature stop solution was added and wells were shaken/mixed again. After 2-5 minutes, the cell lysate plate was transferred to ice for RT-qPCR reaction setup. The lysates could also be frozen at −80° C. for later use.
(§9) In some cases, a direct lysis buffer was used. An appropriate volume of 3×lysis buffer (10 mM Tris, 150 mM NaCl, 1.5%-2.5% Igepal and 0.1-1 U/uL RNAsin, pH 7.4) was directly added to either K562 or A673 cells in media and mixed by pipetting 3 times. The plates were then incubated at room temperature with shaking/rocking for 20-50 minutes to allow for lysis to take place. After this time, the cell lysate plate was transferred to ice to set up for the RT-qPCR reactions. The lysates could also be frozen at −80° C. for later use. […]
For orientation: In qPCR the cycle at which signal appears reflects the starting amount.

For test [2], the system named is MYB mRNA. Kind of test: Splicing RT-qPCR assay, MYB canonical (CJ) and alternative (AJ) junction mRNA. The class given is cell-based. As to conditions: Homo sapiens, A673 or K562 cells, 24 hours; for IC50: decrease in canonical junction mRNA; for AC50: increase in alternative junction mRNA. As to the method: as §1, §5, §6, §7, §8, §9
Test [3] deals with HTT mRNA. Kind of test: Gene panel canonical junction qPCR assay, HTT CJ mRNA decrease. The class given is cell-based, human. As to conditions: Homo sapiens. How it is done:
as §1, §2, §3, §4

The test system of another test is Target C mRNA. Kind of test: Gene panel canonical junction qPCR assay, Target C CJ mRNA decrease. The class given is cell-based. As to conditions: Homo sapiens. How it is done:
as §1, §2, §3, §4

In test [4] the test system is MYB mRNA. Kind of test: Gene panel canonical junction qPCR assay, MYB CJ mRNA decrease. The class given is cell-based, human. As to conditions: Homo sapiens. As to the method:
as §1, §2, §3, §4

The mark [5] stands for this setting: canonical junction qPCR, read-out: SMN2 IC50 (decrease in CJ mRNA levels).
The mark [6] stands for this setting: canonical junction qPCR, read-out: HTT IC50 (decrease in CJ mRNA levels).
[7] abbreviates: canonical junction qPCR, read-out: Target C IC50 (decrease in CJ mRNA levels).
The mark [8] stands for this setting: canonical junction qPCR, read-out: MYB IC50 (decrease in CJ mRNA levels).

A word on the IC50: it is the midpoint of a concentration-inhibition curve. A word on the AC50: it is the midpoint of the concentration-response curve, whichever way the signal moves. On to `Cc1cn2cc(NC(=O)c3ccc(N4CCNCC4)c4ccnnc34)nc2c(C)n1` [Compound 121], for which the IC50 in the test with SMN2 mRNA (setting [5]) is 0.1 to 1 µM; with HTT mRNA [1] it was greater than 10 µM; in the test on MYB mRNA [2], 0.1 to 1 µM; in the test with HTT mRNA [3] (setting [6]), greater than 10 µM; with Target C mRNA (setting [7]), greater than 10 µM; with MYB mRNA [4] (setting [8]) it was 0.1 to 1 µM. The AC50 with HTT mRNA [1] was greater than 10 µM; in the test on MYB mRNA [2] it was 1 to 10 µM.
For `Cc1cn2cc(NC(=O)c3ccc(N4CC5(CN(C)C5)C4)c4ccnnc34)cc(F)c2n1` [Compound 132], the IC50 with SMN2 mRNA (setting [5]) was less than 0.1 µM; in the test on HTT mRNA [1], 1 to 10 µM; with MYB mRNA [2], 0.1 to 1 µM; in the test on HTT mRNA [3] (setting [6]), 1 to 10 µM; in the test on Target C mRNA (setting [7]), greater than 10 µM; in the test with MYB mRNA [4] (setting [8]), 0.1 to 1 µM. Moreover, the AC50 in the test with HTT mRNA [1] was in the range of 1 to 10 µM; with MYB mRNA [2], 0.1 to 1 µM.
Turning to `Cc1cn2cc(NC(=O)c3ccc(N4CCN[C@@H](C)C4)c4ccnnc34)cc(F)c2n1` [Compound 147], the IC50 in the test with SMN2 mRNA (setting [5]) was less than 0.1 µM; in the test on HTT mRNA [1], 1 to 10 µM; with MYB mRNA [2], less than 0.1 µM; in the test on HTT mRNA [3] (setting [6]), 1 to 10 µM; with Target C mRNA (setting [7]) it was 1 to 10 µM; in the test on MYB mRNA [4] (setting [8]), less than 0.1 µM. In addition, the AC50 in the test with HTT mRNA [1] is 1 to 10 µM; in the test with MYB mRNA [2] it was less than 0.1 µM.
Turning to `CNC1[C@@H]2C[C@H]1N(c1ccc(C(=O)Nc3cc(F)c4nc(C)cn4c3)c3nnccc13)C2` (stereo partly shown) [Compound 148], the IC50 in the test with SMN2 mRNA (setting [5]), in the test with HTT mRNA [1], in the test on MYB mRNA [2], in the test with HTT mRNA [3] (setting [6]), with Target C mRNA (setting [7]) and in the test with MYB mRNA [4] (setting [8]) was 1 to 10 µM throughout. The AC50 in the test with HTT mRNA [1] and in the test on MYB mRNA [2] was 1 to 10 µM each time.
In the case of `CCc1cc2c(N3CCNCC3)ccc(C(=O)Nc3cc(F)c4nc(C)cn4c3)c2nn1` [Compound 185, 3-ethyl-N-{8-fluoro-2-methylimidazo[1,2-a]pyridin-6-yl}-5-(piperazin-1-yl)cinnoline-8-carboxamide], the IC50 with SMN2 mRNA (setting [5]) was less than 0.1 µM; in the test with HTT mRNA [1] it was greater than 10 µM; in the test on MYB mRNA [2] it was 0.1 to 1 µM; in the test on HTT mRNA [3] (setting [6]), greater than 10 µM; in the test with Target C mRNA (setting [7]), greater than 10 µM; with MYB mRNA [4] (setting [8]), 0.1 to 1 µM. Moreover, the AC50 is greater than 10 µM in the test with HTT mRNA [1] and 0.1 to 1 µM in the test on MYB mRNA [2].
As for `Cc1cn2cc(NC(=O)c3ccc(N4C[C@@H](C)N[C@@H](C(C)C)C4)c4nccnc34)cc(F)c2n1` [Compound 264, N-{8-fluoro-2-methylimidazo[1,2-a]pyridin-6-yl}-8-[(3S,5R)-3-isopropyl-5-methylpiperazin-1-yl]quinoxaline-5-carboxamide 2,2,2-trifluoroacetate], the IC50 in the test with SMN2 mRNA (setting [5]) was less than 0.1 µM; in the test with HTT mRNA [1], greater than 10 µM; with MYB mRNA [2] it was 1 to 10 µM; in the test with HTT mRNA [3] (setting [6]), greater than 10 µM; in the test on Target C mRNA (setting [7]), greater than 10 µM; with MYB mRNA [4] (setting [8]), 1 to 10 µM. The AC50 is greater than 10 µM with HTT mRNA [1] and 0.1 to 1 µM with MYB mRNA [2].
For the compound `Cc1cn2cc(NC(=O)c3ccc(C4CCNCC4)s3)cc(F)c2n1` [Compound 647], the IC50 is greater than 10 µM in the test on SMN2 mRNA (decrease in CJ mRNA levels, read-out: SMN2 IC50); greater than 10 µM with HTT mRNA [3] (decrease in CJ mRNA levels, read-out: HTT IC50); greater than 10 µM with Target C mRNA (decrease in CJ mRNA levels, read-out: Target C IC50); 1 to 10 µM in the test on MYB mRNA [4] (decrease in CJ mRNA levels, read-out: MYB IC50).
